Reference: ChEMBL document CHEMBL1201862, “PubChem BioAssay data set” (2004)
Active and inactive are the calls of the source.

Experiments:
[1] = target: Dual specificity tyrosine-phosphorylation-regulated kinase 1A (Rattus norvegicus, UniProt Q63470); assay type: biochemical, Homo sapiens
[2] = NIH-3T3 fibroblast cytotoxicity, dose response, cytotoxicity control, cell-based, fluorescence, Alamar Blue, secondary assay (AID 2327); assay type: functional;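 note: NIH-3T3 mouse fibroblasts cultured with fluconazole at 8 µg/mL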
[3] = fluconazole-exposed Candida albicans growth modulators – fluorescence, retest, confirmation (AID 2467); assay type: functional, cell-based
[4] = Trypanosoma cruzi growth suppression in host cells – NIH3T3 host cells, beta-gal luminescence, confirmation (AID 2044); assay type: functional, cell-based;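 note: intracellular parasites grown in NIH/3T3 mouse fibroblasts as host cells; luminescent beta-galactosidase reporter signal from transgenic T. cruzi replicating inside host cells; inhibitors lower the luminescence signal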
[5] = NIH3T3 cell viability loss – ATP luminescence, mouse fibroblasts, counter-screen, dose response (AID 2010); assay type: functional, cell-based;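 note: cells exposed to compound for about 90 hours before reading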
[6] = target: T1, Adenosylmethionine-8-amino-7-oxononanoate aminotransferase (Mycobacterium tuberculosis, UniProt P9WQ81); experiment: Mycobacterium tuberculosis BioA enzyme inhibitor Measured in Biochemical System Using Plate Reader - 2163-02_Inhibitor_Dose_CherryPick_Activity.; assay type: functional, Mycobacterium tuberculosis UT205
T1 sequence (P9WQ81 whole entry): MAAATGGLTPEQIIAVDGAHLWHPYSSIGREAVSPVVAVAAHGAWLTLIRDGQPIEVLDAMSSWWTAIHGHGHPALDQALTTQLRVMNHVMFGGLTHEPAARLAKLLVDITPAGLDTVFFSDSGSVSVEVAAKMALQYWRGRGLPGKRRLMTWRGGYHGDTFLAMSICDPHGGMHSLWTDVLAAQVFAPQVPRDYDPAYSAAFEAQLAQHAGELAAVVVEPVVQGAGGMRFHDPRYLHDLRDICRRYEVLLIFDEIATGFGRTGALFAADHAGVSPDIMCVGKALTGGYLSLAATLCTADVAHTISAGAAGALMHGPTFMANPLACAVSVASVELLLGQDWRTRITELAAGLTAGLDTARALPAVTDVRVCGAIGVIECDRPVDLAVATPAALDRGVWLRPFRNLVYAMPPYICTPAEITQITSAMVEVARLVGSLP

[7] = target: T2, Voltage-gated N-type calcium channel alpha-1B subunit/Amyloid beta A4 precursor protein-binding family A member 1 (Homo sapiens, UniProt Q00975+Q02410); assay type: protein assay
[8] = target: T2, Voltage-gated N-type calcium channel alpha-1B subunit/Amyloid beta A4 precursor protein-binding family A member 1; assay type: protein assay; remark: listed apart in the source
[9] = A cytotoxicity screen of small molecule inhibitors of the PhoP region in Salmonella typhi identified in the primary screen. [Related pubchem assays: 1850, 1864, 1985 ]; assay type: functional
Paired box protein Pax-8 = Paired box protein Pax-8 (Homo sapiens, UniProt Q06710); experiment: PAX8 transcriptional activity inhibition in RMG-I – RMG-I cells, luciferase, cherry-pick, dose response (AID 687027); assay type: functional, cell-based;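 note: luciferase reporter driven by Pax8 target thyroperoxidase promoter measured by SteadyGlo luminescence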
[10] = IGROV1 cell killing – plate reader, dry powder samples, PAX8 inhibitor project, dose response (AID 743043); assay type: functional, cell-based; details: IGROV-1
[11] = OVCAR8 cell viability loss – plate reader, dry powder samples, PAX8 project, dose response (AID 743197); assay type: functional, cell-based; details: OVCAR-8
[12] = target: Voltage-gated inwardly rectifying potassium channel KCNH2 (Homo sapiens, UniProt Q12809); details: Potency;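 note: confirmatory quantitative high-throughput screen measuring inhibition of hERG channel activity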
[13] = target: T3, Histone-lysine N-methyltransferase NSD2 (Homo sapiens, UniProt O96028); assay type: biochemical
T3 sequence (O96028 whole entry): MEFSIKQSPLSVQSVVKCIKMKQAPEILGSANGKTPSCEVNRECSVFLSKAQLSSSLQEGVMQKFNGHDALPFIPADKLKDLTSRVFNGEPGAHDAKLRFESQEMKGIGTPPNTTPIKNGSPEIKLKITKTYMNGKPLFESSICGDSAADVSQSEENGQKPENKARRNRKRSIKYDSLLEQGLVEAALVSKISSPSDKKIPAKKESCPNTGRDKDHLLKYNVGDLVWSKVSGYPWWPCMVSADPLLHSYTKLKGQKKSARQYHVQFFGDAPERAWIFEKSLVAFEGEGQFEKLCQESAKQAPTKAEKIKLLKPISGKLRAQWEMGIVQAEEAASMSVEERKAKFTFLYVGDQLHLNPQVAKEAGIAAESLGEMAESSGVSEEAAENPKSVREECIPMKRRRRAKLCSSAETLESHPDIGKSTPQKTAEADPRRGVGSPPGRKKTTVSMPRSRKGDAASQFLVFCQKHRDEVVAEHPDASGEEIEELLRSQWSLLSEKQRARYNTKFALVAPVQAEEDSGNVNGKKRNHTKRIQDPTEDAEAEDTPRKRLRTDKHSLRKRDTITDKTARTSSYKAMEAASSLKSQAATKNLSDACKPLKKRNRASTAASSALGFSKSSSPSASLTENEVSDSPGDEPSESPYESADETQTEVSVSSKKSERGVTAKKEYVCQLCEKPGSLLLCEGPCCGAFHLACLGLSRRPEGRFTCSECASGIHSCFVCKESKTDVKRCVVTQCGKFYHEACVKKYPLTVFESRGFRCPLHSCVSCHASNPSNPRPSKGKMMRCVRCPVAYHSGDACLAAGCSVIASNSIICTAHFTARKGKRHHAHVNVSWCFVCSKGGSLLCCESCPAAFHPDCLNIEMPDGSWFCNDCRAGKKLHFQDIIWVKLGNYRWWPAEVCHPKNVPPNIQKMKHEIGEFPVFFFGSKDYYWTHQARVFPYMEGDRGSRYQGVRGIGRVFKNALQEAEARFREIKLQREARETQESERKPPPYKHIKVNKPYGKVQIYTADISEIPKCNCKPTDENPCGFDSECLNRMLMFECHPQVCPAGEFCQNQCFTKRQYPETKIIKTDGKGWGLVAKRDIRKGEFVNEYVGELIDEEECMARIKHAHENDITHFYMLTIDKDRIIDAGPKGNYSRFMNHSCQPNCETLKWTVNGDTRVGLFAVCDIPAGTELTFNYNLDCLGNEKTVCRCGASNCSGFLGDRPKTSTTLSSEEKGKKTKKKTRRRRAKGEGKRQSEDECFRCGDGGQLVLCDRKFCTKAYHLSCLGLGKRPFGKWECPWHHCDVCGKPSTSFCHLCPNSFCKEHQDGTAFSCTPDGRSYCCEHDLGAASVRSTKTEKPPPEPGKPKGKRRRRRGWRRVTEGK

[14] = target: Beta-2 adrenergic receptor (Homo sapiens, UniProt P07550); experiment: ADRB2 activation measured by internalization – cell-based, FAP fluorogen, flow cytometry, cherry pick 1, dose response (AID 588763); assay type: functional
Cytochrome P450 3A4 = Cytochrome P450 3A4 (Homo sapiens, UniProt P08684); details: Potency;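 note: confirmatory qHTS run detecting inhibitors and substrates of CYP3A4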

Chain of Voltage-gated inwardly rectifying potassium channel KCNH2 (Q12809 whole entry): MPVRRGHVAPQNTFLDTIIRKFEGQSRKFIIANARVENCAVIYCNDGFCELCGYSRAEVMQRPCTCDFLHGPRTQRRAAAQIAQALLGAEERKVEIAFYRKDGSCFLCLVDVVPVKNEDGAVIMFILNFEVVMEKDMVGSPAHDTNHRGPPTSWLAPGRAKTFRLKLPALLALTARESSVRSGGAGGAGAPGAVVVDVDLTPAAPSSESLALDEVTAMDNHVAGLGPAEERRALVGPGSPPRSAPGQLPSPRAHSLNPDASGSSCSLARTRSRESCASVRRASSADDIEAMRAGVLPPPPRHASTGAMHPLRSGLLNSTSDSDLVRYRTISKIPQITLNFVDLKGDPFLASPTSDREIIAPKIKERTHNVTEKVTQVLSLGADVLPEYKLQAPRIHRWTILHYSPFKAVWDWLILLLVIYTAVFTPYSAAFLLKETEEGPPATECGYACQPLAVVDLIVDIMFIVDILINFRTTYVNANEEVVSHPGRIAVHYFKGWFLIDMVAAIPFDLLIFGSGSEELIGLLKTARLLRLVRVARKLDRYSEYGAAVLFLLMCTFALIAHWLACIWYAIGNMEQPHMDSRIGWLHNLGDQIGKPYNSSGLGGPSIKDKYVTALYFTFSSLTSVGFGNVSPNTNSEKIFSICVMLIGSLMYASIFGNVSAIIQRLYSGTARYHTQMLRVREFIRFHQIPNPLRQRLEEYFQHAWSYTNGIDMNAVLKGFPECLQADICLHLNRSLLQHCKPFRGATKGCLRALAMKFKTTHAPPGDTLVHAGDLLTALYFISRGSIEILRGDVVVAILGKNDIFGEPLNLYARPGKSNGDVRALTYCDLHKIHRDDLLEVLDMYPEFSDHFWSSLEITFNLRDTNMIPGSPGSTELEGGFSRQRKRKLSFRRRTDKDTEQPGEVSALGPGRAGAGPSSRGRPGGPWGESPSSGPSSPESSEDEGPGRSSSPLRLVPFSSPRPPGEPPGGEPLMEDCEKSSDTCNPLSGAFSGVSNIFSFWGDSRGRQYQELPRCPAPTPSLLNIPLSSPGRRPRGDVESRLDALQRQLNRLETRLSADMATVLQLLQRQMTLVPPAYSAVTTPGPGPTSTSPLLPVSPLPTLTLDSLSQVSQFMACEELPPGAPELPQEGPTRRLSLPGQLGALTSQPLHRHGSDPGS
T2 sequence (Q00975 whole entry): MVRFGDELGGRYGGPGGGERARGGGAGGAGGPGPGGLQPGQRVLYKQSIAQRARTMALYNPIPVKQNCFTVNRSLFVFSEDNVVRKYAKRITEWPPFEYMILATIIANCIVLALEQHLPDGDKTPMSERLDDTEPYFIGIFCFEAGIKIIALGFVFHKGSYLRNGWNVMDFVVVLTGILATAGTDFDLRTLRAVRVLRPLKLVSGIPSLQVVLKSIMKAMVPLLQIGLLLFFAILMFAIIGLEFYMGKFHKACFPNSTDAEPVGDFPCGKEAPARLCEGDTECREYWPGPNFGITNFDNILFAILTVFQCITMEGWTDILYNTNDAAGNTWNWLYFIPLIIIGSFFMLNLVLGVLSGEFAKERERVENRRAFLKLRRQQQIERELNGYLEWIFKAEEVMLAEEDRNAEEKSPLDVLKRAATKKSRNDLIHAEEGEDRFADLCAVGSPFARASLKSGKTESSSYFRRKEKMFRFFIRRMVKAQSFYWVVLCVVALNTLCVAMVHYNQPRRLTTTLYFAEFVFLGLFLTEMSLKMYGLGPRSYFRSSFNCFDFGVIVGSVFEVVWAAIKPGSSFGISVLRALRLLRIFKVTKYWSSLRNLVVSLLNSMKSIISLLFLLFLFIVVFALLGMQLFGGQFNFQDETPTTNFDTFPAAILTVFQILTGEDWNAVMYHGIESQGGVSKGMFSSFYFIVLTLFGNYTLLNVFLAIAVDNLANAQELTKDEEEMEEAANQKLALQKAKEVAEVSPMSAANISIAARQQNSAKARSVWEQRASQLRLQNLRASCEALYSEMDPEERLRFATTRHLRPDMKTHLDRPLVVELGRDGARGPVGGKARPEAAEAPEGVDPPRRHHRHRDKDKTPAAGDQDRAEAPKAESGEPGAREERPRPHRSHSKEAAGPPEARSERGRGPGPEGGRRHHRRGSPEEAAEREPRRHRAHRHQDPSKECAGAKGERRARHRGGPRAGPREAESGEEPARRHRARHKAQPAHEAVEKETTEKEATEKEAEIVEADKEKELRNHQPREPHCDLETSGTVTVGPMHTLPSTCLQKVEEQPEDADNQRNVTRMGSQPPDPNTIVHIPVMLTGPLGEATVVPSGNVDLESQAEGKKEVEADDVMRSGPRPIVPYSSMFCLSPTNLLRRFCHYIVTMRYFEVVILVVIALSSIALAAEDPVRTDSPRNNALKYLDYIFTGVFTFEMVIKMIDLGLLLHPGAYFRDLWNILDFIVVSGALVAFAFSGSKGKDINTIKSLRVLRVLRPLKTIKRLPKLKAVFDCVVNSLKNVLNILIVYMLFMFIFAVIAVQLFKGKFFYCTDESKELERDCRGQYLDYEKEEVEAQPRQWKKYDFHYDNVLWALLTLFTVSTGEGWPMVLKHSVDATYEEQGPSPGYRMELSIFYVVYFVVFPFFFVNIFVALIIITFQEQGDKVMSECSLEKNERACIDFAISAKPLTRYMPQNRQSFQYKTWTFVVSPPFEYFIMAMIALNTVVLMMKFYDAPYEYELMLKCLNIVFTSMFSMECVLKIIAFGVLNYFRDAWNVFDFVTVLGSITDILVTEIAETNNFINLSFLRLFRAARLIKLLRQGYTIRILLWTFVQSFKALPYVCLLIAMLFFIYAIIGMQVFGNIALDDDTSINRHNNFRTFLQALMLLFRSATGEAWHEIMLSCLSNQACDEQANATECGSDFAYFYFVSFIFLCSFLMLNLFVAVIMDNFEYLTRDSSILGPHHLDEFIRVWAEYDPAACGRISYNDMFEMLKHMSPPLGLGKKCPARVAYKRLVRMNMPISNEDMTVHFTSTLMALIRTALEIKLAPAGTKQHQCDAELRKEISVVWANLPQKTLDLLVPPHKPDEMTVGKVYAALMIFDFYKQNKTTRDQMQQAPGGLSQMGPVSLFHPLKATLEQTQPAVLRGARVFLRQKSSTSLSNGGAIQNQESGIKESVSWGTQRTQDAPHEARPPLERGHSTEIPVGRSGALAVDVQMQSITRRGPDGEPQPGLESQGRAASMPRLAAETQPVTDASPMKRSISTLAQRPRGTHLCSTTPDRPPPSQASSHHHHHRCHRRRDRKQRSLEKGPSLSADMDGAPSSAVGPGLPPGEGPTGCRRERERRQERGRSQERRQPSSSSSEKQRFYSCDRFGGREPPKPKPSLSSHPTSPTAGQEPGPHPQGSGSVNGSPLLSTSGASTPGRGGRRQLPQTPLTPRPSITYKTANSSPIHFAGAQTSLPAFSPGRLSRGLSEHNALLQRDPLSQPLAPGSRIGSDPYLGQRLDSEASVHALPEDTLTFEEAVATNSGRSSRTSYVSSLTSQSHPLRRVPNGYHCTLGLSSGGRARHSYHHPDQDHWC
T2 sequence (Q02410 whole entry): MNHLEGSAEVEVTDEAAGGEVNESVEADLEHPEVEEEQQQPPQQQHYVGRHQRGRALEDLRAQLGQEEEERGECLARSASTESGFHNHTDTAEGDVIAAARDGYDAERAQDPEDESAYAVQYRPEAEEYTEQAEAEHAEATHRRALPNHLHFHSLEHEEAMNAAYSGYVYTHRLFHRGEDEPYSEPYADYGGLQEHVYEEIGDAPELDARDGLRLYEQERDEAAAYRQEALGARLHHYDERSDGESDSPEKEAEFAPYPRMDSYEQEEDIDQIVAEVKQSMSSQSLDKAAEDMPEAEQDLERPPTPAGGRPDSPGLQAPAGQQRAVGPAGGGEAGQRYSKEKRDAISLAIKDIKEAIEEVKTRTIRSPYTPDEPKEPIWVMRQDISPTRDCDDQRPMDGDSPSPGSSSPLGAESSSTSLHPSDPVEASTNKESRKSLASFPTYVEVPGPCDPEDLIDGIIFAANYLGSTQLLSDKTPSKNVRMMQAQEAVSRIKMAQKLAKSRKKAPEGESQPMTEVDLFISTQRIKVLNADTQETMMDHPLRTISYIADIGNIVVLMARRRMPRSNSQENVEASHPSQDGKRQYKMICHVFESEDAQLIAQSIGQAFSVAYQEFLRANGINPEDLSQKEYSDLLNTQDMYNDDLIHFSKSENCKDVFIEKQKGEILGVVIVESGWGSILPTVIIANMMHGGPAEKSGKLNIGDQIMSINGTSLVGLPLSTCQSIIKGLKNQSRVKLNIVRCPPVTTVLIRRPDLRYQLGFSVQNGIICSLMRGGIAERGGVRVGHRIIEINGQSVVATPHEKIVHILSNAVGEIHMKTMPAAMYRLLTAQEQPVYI
Chain of Beta-2 adrenergic receptor (P07550 whole entry): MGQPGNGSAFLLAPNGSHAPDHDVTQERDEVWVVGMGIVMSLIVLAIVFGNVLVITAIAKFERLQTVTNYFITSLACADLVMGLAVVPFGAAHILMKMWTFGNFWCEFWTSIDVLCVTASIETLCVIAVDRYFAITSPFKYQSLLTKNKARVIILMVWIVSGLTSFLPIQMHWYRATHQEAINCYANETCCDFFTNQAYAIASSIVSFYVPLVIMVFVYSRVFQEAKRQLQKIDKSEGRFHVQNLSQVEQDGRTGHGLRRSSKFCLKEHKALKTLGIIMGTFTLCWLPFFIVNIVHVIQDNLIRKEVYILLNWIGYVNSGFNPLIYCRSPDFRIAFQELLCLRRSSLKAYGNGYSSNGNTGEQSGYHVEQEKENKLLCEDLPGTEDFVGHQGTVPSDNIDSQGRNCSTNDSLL

SMILES: COc1ccc2cc(C(=O)N/N=C/c3cc(OC)c(OC)c(OC)c3)[nH]c2c1
- AC50 [1]: 3.83 µM (active)

SMILES: C/C(CC(C)(C)C1CCCCC1)=N\NC(N)=S
- EC50 [2]: 2.86 µM (inconclusive)
- EC50 [3]: 2.9 µM (active)
- EC50 [4]: < 0.1 µM (active)
- EC50 (cells): 0.133 µM (active)

SMILES: COc1ccc(C2CC(=O)N(CCCN(C)CCc3ccc(OC)c(OC)c3)C2)cc1 (configuration not stated)
- EC50 [4]: < 0.1 µM (active)
- EC50 [5]: > 60 µM (not active)
- EC50 (cells): 0.02 µM (active)

SMILES: O=C(Nc1cccnc1)c1ccc(N2CCCC2)c([N+](=O)[O-])c1
- AC50 [6]: 1.19 µM (active)

SMILES: Cc1ccc(-c2cc(C(=O)N3CC(C)CC(C)C3)c3ccccc3n2)o1 (configuration not stated)
- IC50 [7]: 11.3 µM (active)
- IC50 [8]: 5.42 µM (active)

SMILES: Cc1ccccc1Cn1c(=O)n(CCCC(=O)NCc2ccco2)c(=O)c2ccccc21
- EC50 [9]: > 50 µM (active)

SMILES: C[C@H]1CCCCO[C@H](CN(C)C(=O)Nc2cccc3ccccc23)[C@@H](C)CN([C@@H](C)CO)C(=O)c2cc(NS(=O)(=O)c3ccc(F)cc3)ccc2O1
- AC50 (Paired box protein Pax-8): 5.88 µM (active)
- AC50 [10]: 33.8 µM (active)
- AC50 [11]: > 70 µM (inactive)

SMILES: COC(=O)c1c(C)[nH]c(C)c1C(=O)c1ccccc1Cc1ccccc1
- AC50 [12]: 35.5 µM (inconclusive)

SMILES: CN(C)C(=O)C[C@@H]1C[C@@H]2c3cc(NC(=O)c4cccnc4)ccc3O[C@@H]2[C@@H](CO)O1
- AC50 [6]: 12.7 µM (active)

SMILES: Cc1ccc(NC(=O)CC2=NC(=O)C(CC(=O)Nc3ccccc3F)S2)cc1 (configuration not stated)
- AC50 [13]: 19.1 µM (active)

SMILES: COC(=O)C1=C(c2cccc(OCc3ccccc3)c2)C[C@@H]2CC[C@H]1N2C(=O)NCc1cccc(F)c1
- EC50 [14]: 4.8 µM (active)

SMILES: CCOc1ccc(NC(=O)CNC(=O)c2nn(-c3ccc(OC)c(OC)c3)c(=O)c3ccccc23)cc1
- EC50 [14]: 6.57 µM (active)

SMILES: CCCCCOC(=O)c1ccccc1C(=O)OCCCCC
- AC50 (Cytochrome P450 3A4): 12.6 µM (inconclusive)
- AC50 [12]: 39.8 µM (inconclusive)
